Data on one molecule can be found in ChEMBL document CHEMBL4834424, “Targeting Chikungunya Virus Replication by Benzoannulene Inhibitors” (J Med Chem, 2021).

The structures appear in SMILES notation. The source made the active and inactive calls. The calls are words filed in the database; no cut-off is given here.

Series [1] relates to Chikungunya virus. Briefly: Antiviral activity against CHIKV infected in human NHDF cells assessed as reduction in virus titer in cell supernatant by measuring inhibition of plaque formation using Vero cells at 10 uM pretreated with NHDF cells followed by infected with virus incubated for 24 hrs and measured following infection of supernatants with Vero cells for 48 hrs by plaque based methylene blue dye analysis. It is filed as functional. Conditions: time 72 hrs.

Series [2] has as its system Chikungunya virus. In words: Antiviral activity against CHIKV infected in human NHDF cells assessed as reduction in virus titer in cell supernatant by measuring inhibition of plaque formation using Vero cells pretreated with NHDF cells followed by infected with virus incubated for 24 hrs and measured following infection of supernatants with Vero cells for 48 hrs by plaque based methylene blue dye analysis. Format: functional, organism-based.

Series [3] relates to NHDF. In words: Cytotoxicity against human NHDF cells assessed as cell viability measured after 24 hrs by Cell Titer Glo luminescent assay. Conditions: nhdf, 24 h. Format: cell-based.
Series [4] relates to Chikungunya virus. Format: functional. Conditions: 181-25, C6, time 48 hrs.
Series [5] relates to Chikungunya virus. Briefly: Antiviral activity against CHIKV 99659 infected in Asian tiger mosquito C6/36 cells assessed as reduction in virus titer in cell supernatant by measuring inhibition of plaque formation using Vero cells and measured following infection of supernatants with Vero cells for 48 hrs pi by serial dilution plaque based methylene blue dye analysis. It is filed as functional. Conditions: Chikungunya virus, 99659, C6.

For series [6], the system named is Chikungunya virus. Briefly: Antiviral activity against CHIKV LR2006-OPY1 infected in Asian tiger mosquito C6/36 cells assessed as reduction in virus titer in cell supernatant by measuring inhibition of plaque formation using Vero cells and measured following infection of supernatants with Vero cells for 48 hrs pi by serial dilution plaque based methylene blue dye analysis. Format: functional.

Series [7] has as its system Chikungunya virus. In words: Antiviral activity against CHIKV 37997 infected in Asian tiger mosquito C6/36 cells assessed as reduction in virus titer in cell supernatant by measuring inhibition of plaque formation using Vero cells and measured following infection of supernatants with Vero cells for 48 hrs pi by serial dilution plaque based methylene blue dye analysis. It is filed as functional. Conditions: Chikungunya virus, 37997, C6.

In series [8] the test system is Mayaro virus. In words: Antiviral activity against Mayaro virus TRVL infected in Asian tiger mosquito C6/36 cells assessed as reduction in virus titer in cell supernatant by measuring inhibition of plaque formation using Vero cells and measured following infection of supernatants with Vero cells for 48 hrs pi by serial dilution plaque based methylene blue dye analysis. Format: functional.

Series [9] deals with Onyong-nyong virus. In words: Antiviral activity against O'nyong-nyong virus infected in Asian tiger mosquito C6/36 cells assessed as reduction in virus titer in cell supernatant by measuring inhibition of plaque formation using Vero cells and measured following infection of supernatants with Vero cells for 48 hrs pi by serial dilution plaque based methylene blue dye analysis. Format: functional.

Series [10] in a line: Antiviral activity against Ross river virus infected in Asian tiger mosquito C6/36 cells assessed as reduction in virus titer in cell supernatant by measuring inhibition of plaque formation using Vero cells and measured following infection of supernatants with Vero cells for 48 hrs pi by serial dilution plaque based methylene blue dye analysis. Format: functional. Conditions: […].

The test system of series [11] is Venezuelan equine encephalitis virus. In words: Antiviral activity against Venezuelan equine encephalitis virus TC83 infected in Asian tiger mosquito C6/36 cells assessed as reduction in virus titer in cell supernatant by measuring inhibition of plaque formation using Vero cells and measured following infection of supernatants with Vero cells for 48 hrs pi by serial dilution plaque based methylene blue dye analysis. Format: functional.

The test system of series [12] is Chikungunya virus. Briefly: Antiviral activity against CHIKV infected in mouse NIH3T3 cells assessed as reduction in virus titer in cell supernatant by measuring inhibition of plaque formation using Vero cells pretreated with NIH3T3 cells followed by infected with virus incubated for 24 hrs and measured following infection of supernatants with Vero cells for 48 hrs by plaque based methylene blue dye analysis. Format: functional. Conditions: dose 10 µM.

The test system of series [13] is Chikungunya virus. Briefly: Antiviral activity against CHIKV infected in IFN regulatory factor 3 telomerized human fibroblast cells assessed as reduction in virus titer in cell supernatant by measuring inhibition of plaque formation using Vero cells […] followed by infected with virus incubated for 24 hrs and measured following infection of supernatants with Vero cells for 48 hrs by plaque based …. It is filed as functional. Conditions: time 72 hrs.

Series [14] concerns Chikungunya virus. In words: Antiviral activity against CHIKV-nLuc RNA transfected NHDF cells assessed as decrease in CHIKV RNA at 10 uM pretreated 1 hr before transfection measured after 12 hrs by Nano-Glo luciferase assay. Format: functional, organism-based. Conditions: time 13.0 hrs.
In series [15] the test system is Chikungunya virus. Format: functional, organism-based. Conditions: 181-25, NHDF, dose 20.0 µM, time 13.0 hrs.
Series [16] relates to Chikungunya virus. It is filed as functional, organism-based. Conditions: 181-25, NHDF, dose 20.0 µM, time 13.0 hrs. The source holds these as a separate data set.
The subject of series [17] is Chikungunya virus. Format: functional, organism-based. Conditions: 181-25, NIH3T3, dose 10.0 µM.
The test system of series [18] is Chikungunya virus. Briefly: Antiviral activity against resistance mutation induced CHIKV-117 infected in […] cells assessed as viral infectivity in Vero cells at 10 uM measured up to 24 hrs of post infection by supernatant was quantified by plaque assay. Format: functional, organism-based. Conditions: time hrs <=24.
Series [19] concerns Chikungunya virus. In words: Antiviral activity against resistance mutation induced CHIKV-119 infected in […] cells assessed as viral infectivity in Vero cells at 10 uM measured up to 24 hrs of post infection by supernatant was quantified by plaque assay. Conditions: time hrs <=24. Format: functional, organism-based.
Series [20] deals with Chikungunya virus. Briefly: Antiviral activity against resistance mutation induced CHIKV-117/119 infected in […] cells assessed as viral infectivity in Vero cells at 10 uM measured up to 24 hrs of post infection by supernatant was quantified by plaque assay. Conditions: time hrs <=24. Format: functional, organism-based.
The test system of series [21] is Chikungunya virus. In words: Antiviral activity against wild type CHIKV-117 infected in […] cells assessed as viral infectivity in Vero cells at 10 uM measured up to 24 hrs of post infection by supernatant was quantified by plaque assay. It is filed as functional. Conditions: time hrs <=24.
Series [22] relates to Chikungunya virus. In words: Antiviral activity against CHIKV-nLuc RNA transfected NHDF cells assessed as decrease in Nano-luc signal at 20 uM pretreated 24 hrs before transfection in presence of uridine measured after 24 hrs by Nano-Glo luciferase assay. It is filed as functional, organism-based. Conditions: time 48.0 hrs.
Series [23] relates to Chikungunya virus. In words: Antiviral activity against CHIKV-nLuc RNA transfected NHDF cells assessed as decrease in Nano-luc signal at 20 uM pretreated 24 hrs before transfection in presence of guanosine measured after 24 hrs by Nano-Glo luciferase assay. Format: functional, organism-based.
Series [24] addresses Dihydroorotate dehydrogenase (quinone), mitochondrial (Homo sapiens, UniProt Q02127).

Dihydroorotate dehydrogenase (quinone), mitochondrial, sequence (Q02127 whole entry): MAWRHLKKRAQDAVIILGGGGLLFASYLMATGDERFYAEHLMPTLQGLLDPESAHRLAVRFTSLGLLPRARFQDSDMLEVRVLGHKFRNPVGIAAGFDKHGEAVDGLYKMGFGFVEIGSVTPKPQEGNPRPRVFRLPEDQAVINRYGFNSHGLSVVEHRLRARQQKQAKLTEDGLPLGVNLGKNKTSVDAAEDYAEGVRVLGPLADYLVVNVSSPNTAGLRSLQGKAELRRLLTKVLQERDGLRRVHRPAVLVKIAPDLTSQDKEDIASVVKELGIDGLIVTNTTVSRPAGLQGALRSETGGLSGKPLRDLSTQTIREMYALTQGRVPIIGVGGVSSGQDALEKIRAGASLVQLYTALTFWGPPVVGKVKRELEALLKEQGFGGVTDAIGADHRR

For `COc1cc2c(cc1NC(=O)c1ccc(C(C)(C)C)cc1)CCCC2`, the “log(activity)” value in series [1] stood at 2.5; in [21] it was 1.5. For the same molecule, the concentration for a half-maximal effect (EC50) in series [2] amounted to 1.45 µM. The CC50 in series [3] was determined as 169 µM. Further, the EC90 in [4] came to 1.45 µM; in series [5] it was 1 µM; in [6], 0.4 µM; in series [7] it was 3.39 µM; in series [8], 5.1 µM; in series [9] it was 0.3 µM. Moreover, the EC90 in series [10] came out at 0.32 µM; in series [11], 2.1 µM; in series [12], 3.16 µM; in series [13] it was 1.03 µM. The inhibition result in series [14], in series [15] and in [16] was “Active” each time. The outcome in series [17], in series [18], in [19], in series [20] and in [23] was Active. For the same molecule, the result in series [22] was inactive. The molecule further yielded an IC50 in series [24] of 5 µM.
